The text below walks through data of patent US8008325B2, “Plasma carboxypeptidase B inhibitors” (Bayer Schering Pharma AG, priority 2002, dated 2011).

Assay [1] concerns the target T1, activated plasma carboxypeptidase B (Homo sapiens, UniProt Q96IY4).
T1 sequence (Q96IY4 115-423): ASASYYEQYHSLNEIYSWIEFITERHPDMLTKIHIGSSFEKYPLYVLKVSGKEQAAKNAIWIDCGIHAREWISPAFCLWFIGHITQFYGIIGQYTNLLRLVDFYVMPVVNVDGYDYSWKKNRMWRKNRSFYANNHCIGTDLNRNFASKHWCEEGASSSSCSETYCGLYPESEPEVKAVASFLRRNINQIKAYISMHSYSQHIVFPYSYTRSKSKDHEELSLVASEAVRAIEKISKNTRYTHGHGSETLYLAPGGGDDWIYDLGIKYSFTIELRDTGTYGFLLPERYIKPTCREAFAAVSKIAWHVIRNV
In words: Assay for activated plasma carboxypeptidase B activity (hippuryl-Arg hydrolysis, colorimetric). The class given is biochemical. The note with it: used as positive standard; hippuryl-Arg final 1 mM. How it is done: The compounds of the invention were tested in an in vitro assay according to the method described in Hendriks et al., “Colorimetric assay for carboxypeptidase N in serum”, Clinica Chimica Acta (1986), Vol. 157, pp. 103-108 and Zhao et al., “Identification and characterization of two thrombin-activatable fibrinolysis inhibitor isoforms”, Thromb. Haemost. (1998), Vol. 80, pp. 949-955.
Activation of Plasma Carboxypeptidase B:
The following reagents were mixed together at a total volume of 200 μL:
The above mixture was incubated for 15 minutes at ambient temperature. The activation process was stopped by the addition of 2 μl of PPACK, D-Phe-Pro-Arg chloromethylketone (100 μM, final 1.0 μM). The mixture was then diluted 1:36 with the activation buffer containing 0.1% BSA. The resulting diluted mixture was kept on ice. […] The resulting sample mixture was incubated for 2 minutes at ambient temperature. To the sample mixture was added 12 μL of 5 mM hippuryl-Arg (final 1 mM (=Km)). The resulting sample mixture was incubated at ambient temperature for 30 minutes. At the end of the reaction, the product, hippuric acid, in the sample mixture was converted to a chromogen by adding the following to the mixture: • 80 μL of 0.2 M sodium phosphate buffer, pH 8.3 • 60 μL of 3% cyanuric chloride in dioxane (w/v). […] Optical density of the samples was measured at 382 nm.

For assay [2], the target named is T2, plasma carboxypeptidase B (Homo sapiens, UniProt Q96IY4).
T2 sequence (Q96IY4 115-423): T1 sequence (Q96IY4 115-423)
The note with it: t-PA-induced lysis; cited from earlier work.

Consider `NC(N)=NCCSC(CC(=O)O)C(=O)O` (centres unmarked) [GEMSA, guanidinoethyl-mercaptosuccinic acid], for which it took 35 µM to reach half-maximal inhibition in assay [1] (IC50). Further, the “effect on the inhibitory effect of plasma carboxypeptidase B on clot lysis” value in assay [2] is on record as “blocked the inhibitory effect of plasma carboxypeptidase B on clot lysis”.

By IC50 is commonly meant the concentration at which inhibition is half-maximal.
